This note sets out measurements from article PMC12309613 (Translational Oncology, 2025).

pKd: −log10 of the molar value.

The assay concerns the target T1, PYCR1 (recombinant human His-PYCR1) (Homo sapiens, UniProt P32322).
T1 sequence (P32322 2-319): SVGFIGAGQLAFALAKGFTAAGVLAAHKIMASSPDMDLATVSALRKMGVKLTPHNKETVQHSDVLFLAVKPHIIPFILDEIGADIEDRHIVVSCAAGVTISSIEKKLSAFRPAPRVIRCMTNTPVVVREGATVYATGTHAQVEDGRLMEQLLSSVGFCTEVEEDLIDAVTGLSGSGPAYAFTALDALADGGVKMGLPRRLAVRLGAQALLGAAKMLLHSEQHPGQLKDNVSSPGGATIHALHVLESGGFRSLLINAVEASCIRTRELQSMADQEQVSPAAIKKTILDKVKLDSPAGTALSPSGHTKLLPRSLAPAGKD
Description: surface plasmon resonance. It is filed as binding.

For the molecule `Nc1ncnc2c([C@@H]3O[C@H](CO)[C@@H](O)[C@H]3O)c[nH]c12` [9-DAA], the pKd is 5.10.
